These results are taken from patent US20070207537A1, “Bioreactor” (priority 2004, published 2007).

Molecules are shown by their SMILES.

The series has as its system Human mesnchymal stem cells. The series can be described thus: Alamar Blue toxicity assay in perfused microbioreactor culture. Format: cell-based. The conditions noted are these: 250 ng/ml, read at day 3 and day 7, FIG. 3. As to the method:
Human mesnchymal stem cells were suspended in the α Modified Eagle's Medium (MEM) at the cell density of 10^4/ml. A 50 μl of cell suspension was introduced to each of the microbioreactors and kept at 37° C. After 4 h, the cell was seen to attach to the surface of the microbioreactor under microscope. During culture, αMEM supplemented with 15% FBS, 2% antibiotics/antimycotics and with different concentrations of tested drugs was used. The chemicals used were Trimethoprim and Pyrimethamine, which are known to be toxic to cells. The concentrations of the drug were 100 ng/ml and 250 ng/ml. The flow rate was 0.025 ml/h. Alamar Blue was used to do toxicity assay, which simply indicates the cell metabolity.
The samples from 3 days of culture with drug, 7 days of culture with drug and 3 days of culture without drug and further 4 days culture with drug were incubated with culture medium supplemented with Alamar Blue at day 3 and day 7, respectively for 4 h. Then 100 μl of culture medium was transferred to 96-well plate to read using microplate reader at the excitation wavelength of 530 nm and emission wavelength of 590 nm. Toxicity was shown as the ratio of reading from untreated with drug and from treated with drug, see FIG. 3. The toxicity was increased with culture time with drug. No significant different in toxicity between the two concentrations of drug in the test.

For `CCc1nc(N)nc(N)c1-c1ccc(Cl)cc1` [Pyrimethamine], the “Toxicity (ratio of reading from untreated with drug and from treated with drug)” value is reported as “dramatic increase in toxicity”.
